Laboratory results from patent US20260325643A1, “METHOD AND PHARMACEUTICAL COMPOSITION FOR VISIBLE LIGHT-INDUCED CORNEAL CROSSLINKING WITH RUTHENIUM COMPOUNDS FOR THE TREATMENT OF EYE DISORDERS” (KOC UNIVERSITESI, priority 2022, published 2026).

Key:
[1] = test system: bovine corneas; assay: Rheological measurements of crosslinked corneas (time sweep); settings: 2 mM riboflavin, UV-A 365 nm, after 30 min
Description: (§1) For biomechanical experiments, bovine corneas were used. First the corneal epithelia were removed with a scalpel blade and 8 mm central corneal buttons were isolated from bovine eyes with a trephine blade (Katena, Parsippany, NJ, USA). After that, corneal buttons separated into three different experimental groups: • Ruthenium (Ru)-Sodium persulfate (SPS)/visible light, • Riboflavin/UV-A light, and • Control groups.
[Ru(bpy)3]^2+ and SPS solution was prepared in PBS via dissolving Tris(2,2′-bipyridyl)dichlororuthenium(II) hexahydrate (544981, Sigma-Aldrich, MO, USA) and sodium persulfate (216232, Sigma-Aldrich, MO, USA). Ru-SPS solution was prepared in two different concentrations: 0.001 M (1 mM) and 0.0001 M (0.1 mM) was dropped on corneal buttons and the samples were incubated for 5 min for the samples in the Ru-SPS experimental group. Then all solutions were removed, and 430 nm visible light (3 mW/cm^2) was applied to the samples for 40 min. […]
Rheological measurements were carried out in time sweep mode with 1 Hz frequency, 1% strain using TA Instruments AR/DHR series rheometer (New Castle, DE) equipped with two different light sources: visible light ([…]) and UV-A light (λ=365 nm). […] Storage and loss moduli profiles were recorded as a function of time continuously for 40 min at ambient conditions. […]

[2] = test system: bovine corneas; assay: Uniaxial stress-strain test of corneal strips
Description: as §1
(§2) [Ru(bpy)3]^2+ and SPS solution was prepared in PBS via dissolving Tris(2,2′-bipyridyl)dichlororuthenium(II) hexahydrate (544981, Sigma-Aldrich, MO, USA) and sodium persulfate (216232, Sigma-Aldrich, MO, USA). Ru-SPS solution was prepared in two different concentrations: 0.001 M (1 mM) and 0.0001 M (0.1 mM) was dropped on corneal buttons and the samples were incubated for 5 min for the samples in the Ru-SPS experimental group. Then all solutions were removed, and 430 nm visible light (3 mW/cm^2) was applied to the samples for 40 min. To mimic the standard CXL corneal collagen crosslinking procedure for the riboflavin experimental group, 0.002 M (2 mM) riboflavin 5′-monophosphate solution (18167, Cayman Chemical, MI, USA) was dropped on corneal buttons and the samples were incubated for 5 min. Then riboflavin solution was removed, and 365 nm visible light (3 mW/cm^2) applied to the cornea samples for 40 min. No solution or light was applied to the corneas in the control group.
The stress-strain test was performed on a full-thickness minus the epithelium corneal strips dissected from the bovine corneas. The mechanical properties of all the samples were determined using force and displacement measurements. The initial cross-sectional area and the corresponding force measurements of each test sample were used to calculate the engineering stress. The maximum displacement at the breakage point of each sample was used to estimate the change in the length of each sample. This change in the length was related nominally to the initial length of the corresponding test sample to calculate the engineering strain. The modulus of elasticity and the ultimate tensile strength of each sample was then estimated by the engineering stress-strain curves. The ultimate tensile strength was defined as the peak value of stress on the stress-strain curve before the breakage point of the sample when being stretched. The linear regression analysis between the zero point and the point that equals 70% of the maximum stress for each sample was used to compute the modulus of elasticity. The modulus of elasticity is a material-dependent property such that it depends upon the internal structure and the bond strength between the atoms of each sample. Therefore, the modulus of elasticity remained similar for one sample type; however, it differed for other sample types. […]

[3] = test system: bovine corneas; assay: Osmotic stress (swelling) test; settings: 15% dextran-500 PBS overnight, then three hours in distilled water
Description: as §1
as §2, with “control group. […]” for “control group.”

[4] = test system: bovine corneas; assay: Corneal optical transparency and Lambert-Beer penetration distance
Description: The standard protocol for corneal crosslinking can only be applied in cases with a corneal thickness above 400 μm. When applied to thinner corneas, UV-A beam reaches the corneal endothelial cells resulting in endothelial toxicity and corneal edema. For this purpose, the Lambert-Beer formula was applied for optical transmittance results of both photoinitiator solutions (FIG. 6C). Corneal light transmittance was then calculated with the Lambert-Beer formula: […]
In this formula, A represents the optical absorbance of the sample, ε represents the molar attenuation coefficient of the photoinitiator, c is the concentration of the photoinitiator, and l is the total optical path length of the light. For these calculations, molar attenuation coefficients for each photoinitiators (10066 M^−1 cm^−1 for riboflavin and 14,600 M^−1 cm^−1 for tris(2,2′-bipyridyl)ruthenium(II)) obtained from previous literature.[15, 16] […]
Corneal optical transparencies were measured in corresponding light wavelengths for each experimental group. For the 2 mM riboflavin-based crosslinked corneas, average optical transparency in 365 nm was measured as 0.713±0.222. In the same conditions, the average optical transparency for 1 mM ruthenium-based crosslinked corneas was measured as 0.724±0.050 in 430 nm light wavelength, which is correlated with the riboflavin-based CXL procedure. […]

[5] = test system: bovine corneas; assay: Enzymatic digestion (collagenase) test of corneas; settings: 24 hours of digestion by collagenases
Description: as §1
as §2, with “control group. […]” for “control group.”

[6] = test system: bovine corneas; assay: UV & visible spectrophotometry of corneas; settings: PBS, UV (300-400) and visible (400-800); different crosslinking procedures
Description: Optical transmission and absorption tests were performed on de-epithelized bovine corneas for the UV and visible light spectrum. Control and crosslinked corneas were submerged in PBS, and their optical transmission was assessed using a UV-Vis. Spectrometer (Edinburgh Instruments Spectrofluorometer FS5). Transmittance spectra (% T) were collected from 300 to 800 nm at 1 nm increments. […] The results are illustrated in FIGS. 7A-7B.

[7] = obtained from previous literature [15, 16]; cited from earlier work
[8] = test system: cornea; settings: background, cited from earlier work; for hardness / stiffness of cross-linked cornea: Rose Bengal/Green Light (532 nm) or riboflavin/UV-A
[9] = test system: human corneal epithelial cells (HCECs) and limbal mesenchymal stem cells (LMSCs); assay: Cell viability / cytotoxicity, HCECs and LMSCs taken together; assay type: cell-based; settings: Ruthenium or/and SPS
From the text: Furthermore, the cytotoxic effects of Ruthenium and SPS compound on human corneal epithelial cells (HCECs) and limbal mesenchymal stem cells (LMSCs) were investigated to determine the ruthenium concentration and time needed for the cross-linking process. The relative viabilities of cells were detected by CellTiter-Glo® Luminescent Cell Viability Assay (Promega, Mannheim, Germany) detected the relative viabilities of cells, which is a method used to detect the number of viable cells depending on the amount of ATP in alive cells. […] (FIGS. 3A-3B)

[10] = test system: LMSCs and HCECs; assay: Annexin V-FITC/PI flow cytometry; assay type: cell-based, human; settings: 1 hour treatment; compared with ruthenium-SPS treated cells
Description: The effects of [Ru(bpy)3]^2+ and SPS solutions on cell viability and apoptosis were examined by Annexin-V/propidium iodide (PI) staining in flow cytometry. LMSCs and HCECs (10^5 cells/well) were plated in 6-well culture dishes. [Ru(bpy)3]^2+ and SPS in various concentrations (1 mM and 10 mM) were added to the cell culture medium. The cells were incubated for 1 hour at 37 °C. After the treatment with the solutions, the cells were collected and washed with PBS at 4 °C. The cells were resuspended in 1× binding buffer at a 1×10^5 cells/ml density. 100 μl of the cell suspension were labeled with 2.5 μl of fluorochrome-conjugated Annexin V and 5 μl of PI according to the manufacturer's protocol (BioLegend, San Diego, CA, USA) and analyzed by using a flow cytometer (Attune N. T Flow Cytometer, Thermo Fisher Scientific, Waltham, MA, USA).
Annexin V-FITC and propidium iodide staining provide sensitive outcomes for detecting cellular apoptosis. While annexin V-FITC binds on the surface of cells that undergo programmed cell death, PI detects necrotic or late apoptotic cells characterized by loss of plasma and nuclear membrane integrity. Cells treated with [Ru(bpy)3]^2+ and/or SPS for 1 hour were harvested after treatment and stained with Annexin V-FITC and PI.

Row | SMILES | average storage modulus [1] [kPa] | stiffness compared to control ([2]; from modulus of elasticity) | increase of modulus of elasticity vs control ([2]; riboflavin-treated) | increase of ultimate tensile strength vs control ([2]; riboflavin-treated) | strain compared to control ([2]; stress-strain test) | swelling vs normal corneas [3] | average optical transparency ([4]; 2 mM riboflavin-based crosslinked corneas, 365 nm) | mean distance traveled in the bovine cornea ([4]; Lambert-Beer formula applied to optical transmittance results) [μm] | resistance to enzymatic digestion [5] | optical absorbance of corneas, change after crosslinking [6] | optical transmission of corneas, change after crosslinking [6] | molar attenuation coefficient [7] [M⁻¹ cm⁻¹] | hardness / stiffness of cross-linked cornea [8] | healing time of corneal haze, in some eyes ([8]; riboflavin/UV-A) | cytotoxicity influence on viability of cells [9] | cell death (Annexin V-FITC/PI) [10] | depth of cross-linking effect ([8]; Rose Bengal/Green Light (532 nm))
1 | Cc1cc2nc3c(=O)[nH]c(=O)nc-3n(C[C@H](O)[C@H](O)[C@H](O)COP(=O)(O)O)c2cc1C [riboflavin, riboflavin 5′-monophosphate] | 92.88 | overall increasing stiffness | approximately 16% | approximately 16% | decreasing strain trend | less swelling | 0.713±0.222 | 719 | digested entirely after 24 hours | did not change significantly | did not change significantly | 10066 | increased corneal stiffness | 6-12 months |  |  | 
2 | O=S(=O)([O-])OOS(=O)(=O)[O-].[Na+].[Na+] [SPS, sodium persulfate] |  |  |  |  |  |  |  |  |  |  |  |  |  |  | dose-dependent cytotoxicity | higher degree of cell death than ruthenium-SPS treated cells | 
3 | O=C1OC2(c3cc(I)c(O)c(I)c3Oc3c2cc(I)c(O)c3I)c2c(Cl)c(Cl)c(Cl)c(Cl)c21 [Rose Bengal] |  |  |  |  |  |  |  |  |  |  |  |  | increased hardness |  |  |  | more superficial effect
